Measured values as given in ChEMBL document CHEMBL1157146, “Structure-activity relationship of human GLO I inhibitory natural flavonoids and their growth inhibitory effects” (Bioorg Med Chem, 2008).
pIC50: −log10 of the molar value. Active and inactive are the calls of the source. No cut-off for these calls is given here.

Columns and labels:
HL-60 = experiment: Antiproliferative activity against human HL60 cells at 30 uM after 48 hrs by MTS assay; type: functional, cell-based
Lactoylglutathione lyase [1] = target: T1, Lactoylglutathione lyase (Homo sapiens, UniProt Q04760); experiment: Inhibition of human recombinant His-tagged Glyoxalase 1 expressed in Sf21-Baculovirus system
Target sequence in this assay (Q04760 whole entry): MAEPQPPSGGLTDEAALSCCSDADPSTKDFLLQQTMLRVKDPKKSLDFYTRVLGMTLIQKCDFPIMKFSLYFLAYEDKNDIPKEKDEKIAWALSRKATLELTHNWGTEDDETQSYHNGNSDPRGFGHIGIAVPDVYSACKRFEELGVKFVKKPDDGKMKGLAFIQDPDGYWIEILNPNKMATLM

Lactoylglutathione lyase [2] = target: T1, Lactoylglutathione lyase; experiment: Inhibition of human recombinant His-tagged Glyoxalase 1 expressed in Sf21-Baculovirus system at 100 uM
Target sequence in this assay (Q04760 2-184 limits assumed): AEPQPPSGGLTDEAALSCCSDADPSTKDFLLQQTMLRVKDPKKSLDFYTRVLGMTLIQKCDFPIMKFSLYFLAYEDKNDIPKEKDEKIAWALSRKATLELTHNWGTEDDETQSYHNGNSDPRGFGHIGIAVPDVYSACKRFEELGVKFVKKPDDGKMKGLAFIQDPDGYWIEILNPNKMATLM

Compound	Activity (HL-60)	pIC50 (Lactoylglutathione lyase [1])	inhibition (Lactoylglutathione lyase [2])
N[C@@H](CCC(=O)N[C@@H](CSCc1ccc(Br)cc1)C(=O)NCC(=O)OC1CCCC1)C(=O)OC1CCCC1	Active	–	–
O=C(O)[C@H]1O[C@@H](Oc2cc3oc(-c4ccccc4)cc(=O)c3c(O)c2O)[C@H](O)[C@@H](O)[C@@H]1O	Active	–	–
O=c1c(O)c(-c2cc(O)c(O)c(O)c2)oc2cc(O)cc(O)c12	Active	–	–
COc1c(O[C@H]2O[C@H](C(=O)O)[C@@H](O)[C@H](O)[C@H]2O)cc2oc(-c3ccccc3)cc(=O)c2c1O	Active	–	–
O=c1c(O)c(-c2ccc(O)cc2)oc2cc(O)cc(O)c12 [KAEMPFEROL]	Active	4.69	60%
O=c1c(O)c(-c2ccc(O)c(O)c2)oc2cc(O)cc(O)c12	Active	–	–
O=C1C[C@@H](c2ccc(O)cc2)Oc2cc(O)cc(O)c21	Active	–	50%
O=c1cc(-c2ccc(O)c(O)c2)oc2cc(O)cc(O)c12 [LUTEOLIN]	Active	5.11	–
O=c1c(O[C@@H]2O[C@H](CO)[C@H](O)[C@H](O)[C@H]2O)c(-c2ccc(O)c(O)c2)oc2cc(O)cc(O)c12	Active	–	–
O=c1cc(-c2ccccc2)oc2cc(O)c(O)c(O)c12 [BAICALEIN]	Active	4.96	–
